The source of these data is patent US20070202058A1, “Compositions for treating gastric reflux” (priority 2006, published 2007).

Assay [1] deals with aspirin induced gastric lesions. In words: Prevention of aspirin induced gastric lesions (U.S. Pat. No. 3,988,466, Table 1). The class given is in vivo. Conditions: aspirin induced gastric lesions (Table 1). As for the experimental part: (§1) U.S. Pat. No. 3,988,466 reports that amino acids, particularly, L-glutamine are effective for the prevention or treatment of certain experimental ulcers, induced artificially by stress or pylorus ligation, or chemically by histamine, reserpine, cortisone, or inflammatory agents when given simultaneously. Further, such prevention only occurred when the concomitant dosage of the amino acid, L-glutamine, present was 2-5 g for a dose of aspirin of 0.3-1.0 g or for 25-50 mg of indomethacin, the required dose of L-glutamine was 2 g. […] Glutamine was ineffective in prevention of indomethacin induced gastric lesions at a dose of 15.6 mg/kg (Table 2) which is equivalent to 1.1 g for an human adult (70 kg weight). No use or indication for relief of gastric distress before or after lesion formation was observed, nor could it have been in the animal model used. No use or indication for relief of gastric lesions after lesion formation was disclosed. […] Of the 24 amino acids tried at the pharmaceutically unacceptable level of 750 mg/kg (calculated to be 52.5 g of the amino acid for a 70 kg human dose), all but DL-tryptophan, L-aspartic acid, L-tyrosine, L-cysteine and L-cystine gave more than 50% inhibition of ulcers. The pH of the amino acids was not a factor in ulcer prevention, showing that “the effect of amino acids is different from that of antacids” (Col 6, lines 27-31)

For assay [2], the system named is indomethacin induced gastric lesions. In words: Prevention of indomethacin induced gastric lesions (U.S. Pat. No. 3,988,466, Table 2). The class given is in vivo. Conditions: indomethacin induced gastric lesions (Table 2). How it is done:
as §1

In assay [3] the test system is aspirin induced gastric lesions. The note with it: cited from earlier work.
Assay [4] concerns indomethacin induced gastric lesions. The note with it: cited from earlier work.
For a further assay, the system named is small bowel ulcers. Conditions: rats, cited from earlier work; for ulcer healing: glutamine given in a guar gum.
In assay [5] the test system is gastric reflux (heartburn). The assay can be described thus: Example 9: patient with stress-related gastric reflux takes L-lysine confection. The class given is in vivo, human. Conditions: for effect of the patient's earlier treatments on gastric reflux / heartburn: same patient, Nexium 40 mg twice a day.

For `NC(=O)CC[C@H](N)C(=O)O` [Glutamine, L-glutamine], the “minimum effective dose calculated for a 70 kg human” value in assay [1] was 8.75 g; in assay [2], 2.2 g. For the same compound, the minimum effective dose is given as 125 mg/kg in assay [3] (aspirin induced gastric lesions (Table 1)) and 31.3 mg/kg in assay [4] (indomethacin induced gastric lesions (Table 2)). In assay [3] (dose of 62.5 mg/kg), the “prevention of aspirin induced gastric lesions” value is reported as “completely ineffective”. Moreover, in assay [4] (dose of 15.6 mg/kg), the “prevention of indomethacin induced gastric lesions” value is listed as “ineffective”. Moreover, the ulcer healing entry with small bowel ulcers is “no effect”.

With `N=C(N)NCCC[C@H](N)C(=O)O` [L-arginine], the “decrease in ulcer number” value with small bowel ulcers (L-arginine together with yeast RNA (antagonistic)) is 34%. The ulcer healing result with small bowel ulcers is “somewhat effective”.

For `NCCCC[C@H](N)C(=O)O` [L-lysine], the “time to complete cessation of all symptoms” value in assay [5] (1 gram dose as a carrageenan confection) was “one”. Moreover, in assay [5] (1 gram dose as a carrageenan confection, patient with gastric reflux due to stress), the relief of heartburn result was “immediate relief”.

Consider `COc1ccc2nc([S@@+]([O-])Cc3ncc(C)c(OC)c3C)[nH]c2c1` [Nexium, esomeprazole, reference compound], for which, in assay [5], the “effect of the patient's earlier treatments on gastric reflux / heartburn” value is “continued heartburn”.

As to `O=C([O-])[O-].[Ca+2]` [calcium carbonate antacids, calcium carbonate, reference compound], the “effect of the patient's earlier treatments on gastric reflux / heartburn” value in assay [5] is reported as “ineffective”.
